Measured values: patent publication US12265082B2, “Detecting microbial infection in wounds” (SYNOVO GMBH, priority 2016, dated 2025)
Residues, ends and D or L forms follow the SMILES beside them. *: point of attachment. X5 = 4‑(N-piperazino)phenyl‑bis(4-dimethylaminophenyl)carbenium, CN(C)c1ccc([C+](c2ccc(N(C)C)cc2)c2ccc(N3CCN(*)CC3)cc2)cc1; X9 = CN(C)c1ccc([C+](c2ccc(N(C)C)cc2)c2ccc(N3CCN(*)CC3)cc2)cc1

What was measured:
[1] = Color change of allyl sulfophthalein dyes with pH, base or ammonia; assay type: physicochemical
[2] = molecular target: T1, human elastase from leucocytes (Homo sapiens, UniProt P08246); test: Enzyme hydrolysis of substrates by human elastase from leucocytes, cleavage products by ion trap MS; conditions: mass peak at m/z=484
T1 sequence (P08246 30-267): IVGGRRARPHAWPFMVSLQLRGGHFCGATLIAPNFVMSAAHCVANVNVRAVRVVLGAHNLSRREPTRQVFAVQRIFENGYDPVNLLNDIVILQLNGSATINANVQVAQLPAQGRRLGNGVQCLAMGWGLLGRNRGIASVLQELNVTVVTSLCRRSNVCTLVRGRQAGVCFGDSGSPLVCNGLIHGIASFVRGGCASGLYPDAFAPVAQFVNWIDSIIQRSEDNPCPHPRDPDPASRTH
Procedure: (§1) Appearance of the assay mixture was either a clear solution, a suspension or a gel, depending on the properties of the enzyme substrate. Incubation was performed at 37° C. After 3 and 20 h, 10 μL samples were taken and the enzyme was denatured by addition of 10 μL MeOH to each sample. After mixing and incubation at −20° C. for 20 min the samples were centrifuged at 13.000 rpm for 10 min. Each assay included a control without enzyme, containing 1 mg/mL to 5 mg/mL substrate and analysis was performed in the same way and in parallel to the enzyme-containing assays. The supernatant after MeOH precipitation was analyzed via ion trap MS, either [M+H]+ or [M−H]−, depending on the properties of the molecule and the expected cleavage products.

[3] = molecular target: pancreatic porcine elastase (Sus scrofa, UniProt P00772); test: Enzyme hydrolysis of substrates by pancreatic porcine elastase, cleavage products by ion trap MS; conditions: mass peak at m/z=484
Procedure: as §1

elastase = test: Treatment with elastase, released dye fragment found by MS-analysis (synthesis examples); assay type: biochemical; conditions: elastase species not stated
MPO = molecular target: T2, MPO (Homo sapiens, UniProt P05164); test: Reaction of methoxy aniline derivative as substrate of MPO; assay type: biochemical
T2 sequence (P05164 49-745): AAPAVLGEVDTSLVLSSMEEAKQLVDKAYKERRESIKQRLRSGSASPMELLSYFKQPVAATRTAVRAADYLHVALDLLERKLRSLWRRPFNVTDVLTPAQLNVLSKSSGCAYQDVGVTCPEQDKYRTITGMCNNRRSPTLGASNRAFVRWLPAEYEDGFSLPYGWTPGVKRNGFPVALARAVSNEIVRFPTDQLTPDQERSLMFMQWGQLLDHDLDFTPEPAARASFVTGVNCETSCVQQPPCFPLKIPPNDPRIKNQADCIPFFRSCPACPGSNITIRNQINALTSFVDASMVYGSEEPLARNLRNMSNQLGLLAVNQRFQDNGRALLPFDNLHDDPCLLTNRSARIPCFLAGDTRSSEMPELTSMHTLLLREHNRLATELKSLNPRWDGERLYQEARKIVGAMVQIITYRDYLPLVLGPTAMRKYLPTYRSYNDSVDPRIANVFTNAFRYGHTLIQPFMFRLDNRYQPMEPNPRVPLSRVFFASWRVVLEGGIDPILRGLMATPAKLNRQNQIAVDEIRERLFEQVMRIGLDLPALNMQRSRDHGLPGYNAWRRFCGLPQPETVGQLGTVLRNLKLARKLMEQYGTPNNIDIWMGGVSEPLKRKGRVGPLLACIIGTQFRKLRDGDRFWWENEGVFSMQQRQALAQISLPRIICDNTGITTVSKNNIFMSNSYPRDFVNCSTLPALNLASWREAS
Excerpt: The ideal ratio by mass is circa 2:8 aniline: product of example 10. The most efficient reaction occurs when the divalent anion is sulphuric acid, however, disulfonic substituted aromatic systems and phosphoric acid can also be used with diminished rate. HC1 provides only limited reaction. On reaction, one of the products of MPO oxidation appears to be the dimer of the two aniline components (see FIG. 13).

pancreatic porcine elastase, sequence (P00772 27-266): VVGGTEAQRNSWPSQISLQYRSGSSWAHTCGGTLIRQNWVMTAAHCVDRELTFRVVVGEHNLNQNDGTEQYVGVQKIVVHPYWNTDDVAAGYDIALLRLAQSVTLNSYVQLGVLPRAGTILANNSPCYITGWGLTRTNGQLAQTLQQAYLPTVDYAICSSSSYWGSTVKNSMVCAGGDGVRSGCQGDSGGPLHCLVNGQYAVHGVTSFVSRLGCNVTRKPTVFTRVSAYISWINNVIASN

| Compound | color change with pH / base / ammonia [1] | release of dye fragment on treatment with elastase (elastase) | other results |
| --- | --- | --- | --- |
| C-Allyl Bromophenol Red [Example 97] | color changed with ammonia to violet |  |  |
| 4-([4-{H-Ala-Ala-Pro-Val-Ala}amido N-piperazino]phenyl)-bis-(4-dimethyl-aminophenyl)-carbenium ion polyacrylamide (H-AAPVA-X5; also: polyacrylamide) [Example 71e] |  |  | release of A-CV on treatment with human elastase [2]: releases A-CV; release of A-CV on treatment with porcine elastase [3]: releases A-CV |
| Fmoc-AAPF-aminoethyl-(Remazol Black B)-(N′-acetyl)-ethylamide [Example 53] |  | yield the mono-acetylated-Remazol Black B-amino derivative |  |
| CMC 9M31F-AAPF-RBB [Example 55] |  | release of the dye |  |
| CMC 9M31F-AAPFA-RBB [Example 54] |  | release of the dye |  |
| CC(N)C(=O)NC(C)C(=O)N1CCCC1C(=O)NC(C(=O)NC(C)C(=O)N1CCN(c2ccc([C+](c3ccc(N(C)C)cc3)c3ccc(N(C)C)cc3)cc2)CC1)C(C)C (stereo not drawn) [Example 71, 4-([4-{H-Ala-Ala-Pro-Val-Ala}[SEQ ID NO: 28]amido N-piperazino]phenyl)-bis-(4-dimethyl-aminophenyl)-carbenium ion] (H-AAPVA-X9; configuration not given here) |  | released A-CV |  |
| CCCCCCCCCCCCC(O)CNc1cc(OC)c(NC(=O)c2ccccc2)cc1OC (racemic) [Example 10, N-(1-[2-Hydroxy]Tetradecanyl) Fast Blue RR (N-4-(1,3-Dimethoxy-2-N-Benzoylamidophenyl)-N′-Rac-(2-Hydroxy-n-Tetradecyl)-Amine)] |  |  | reaction as substrate of MPO (MPO): can be a direct substrate of MPO |
| Bis-(4-dimethylaminophenyl)-(4-[4-N-{6-N-valinoyl)aminohexanoyl}]piperazinophenyl)-carbenium ion [Example 72] |  | releases no Ahx-CV |  |
| C=CCOc1ccc(C2(c3ccc(O)c(Cl)c3)OS(=O)(=O)c3ccccc32)cc1Cl (centres unmarked) [Example 95, O-Allyl Chlorophenol Red] | no longer changed color with pH |  |  |
| C-Allyl Chlorophenol Red [Example 96] | changed color when treated with base to deep violet |  |  |
